Data reported in PubChem BioAssay (NCI).
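Following 48 hours of exposure in 96-well plates, responses at five concentrations were used to interpolate endpoints linearly. At the GI50, growth is halved. The concentration for full growth arrest is given as TGI.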

Assays:
Test in all cases: NCI-60 cell line screen, 48 h
[1] = tested on: 786-0 renal
[2] = tested on: ACHN renal
[3] = tested on: COLO 205 colon
[4] = tested on: HL-60(TB) leukemia
[5] = tested on: K-562 leukemia
[6] = tested on: MOLT-4 leukemia
[7] = tested on: OVCAR-5 ovarian
[8] = tested on: SK-OV-3 ovarian
[9] = tested on: SN12C renal
[10] = tested on: SR leukemia

| SMILES | TGI [1] [µM] | TGI [2] [µM] | TGI [3] [µM] | TGI [4] [µM] | TGI [5] [µM] | TGI [6] [µM] | TGI [7] [µM] | TGI [8] [µM] | TGI [9] [µM] | TGI [10] [µM] | GI50 [1] [µM] | GI50 [2] [µM] | GI50 [3] [µM] | GI50 [4] [µM] | GI50 [5] [µM] | GI50 [6] [µM] | GI50 [7] [µM] | GI50 [8] [µM] | GI50 [9] [µM] | GI50 [10] [µM] |
| --- | --- | --- | --- | --- | --- | --- | --- | --- | --- | --- | --- | --- | --- | --- | --- | --- | --- | --- | --- | --- |
| CCCCCCCCCCCCCCN | > 100 | > 100 | > 100 | > 100 | > 100 | > 100 | > 100 | > 100 | > 100 |  |  |  |  |  |  |  |  |  |  |  |
| COc1ccc(NC(=O)C(=O)Cc2nc3ccc([N+](=O)[O-])cc3[nH]c2=O)c(OC)c1 | > 100 | > 100 | > 100 | > 100 | > 100 | > 100 | > 100 | > 100 |  |  |  |  |  |  |  |  |  |  |  |  |
| CS(=O)(=O)OCCN1CCN(C(=O)c2cccc3c(Nc4ccc(S(=O)(=O)N=C(N)N)cc4)c4ccccc4nc23)CC1 | > 100 | > 100 | > 100 | > 100 | > 100 | > 100 | > 100 | > 100 | > 100 |  |  |  |  |  |  |  |  |  |  |  |
| CCOC(=O)/C(O)=C/c1cc(OC)cc(=O)o1 | > 100 | > 100 | > 100 | > 100 | > 100 | > 100 | > 100 | > 100 | > 100 |  |  |  |  |  |  |  |  |  |  |  |
| COc1cc(/C=C\c2ccc(C)cc2)cc(OC)c1OC | 25.2 | > 100 | 0.144 | 0.0159 | 11.7 | 0.51 | > 91.5 |  | > 69 | 0.0917 |  |  |  |  |  |  |  |  |  |  |
| Cc1ccc(-c2cc(-c3ccco3)c(C#N)c(=O)[nH]2)cc1 | > 100 | > 100 | > 100 | > 100 | > 100 | > 100 | > 100 | 97.6 | > 100 |  |  |  |  |  |  |  |  |  |  |  |
| O=[N+]([O-])c1ccc(S(=O)Cc2ccccc2)c([N+](=O)[O-])c1 (centres undefined) | 17.3 | 3.07 | 3.05 | 5.2 | 6.65 | 4.88 | 29.9 | 30 | 33.1 |  | 4.91 | 1.62 | 1.68 | 2.21 | 2.56 | 2.1 | 14.5 | 16.4 | 11.6 |  |
| CCCNCCCC(NC(C)=O)C(=O)NCc1ccccc1 (centres undefined) | > 100 | > 100 | > 100 |  | > 100 | > 100 | > 100 | > 100 | > 100 |  |  |  |  |  |  |  |  |  |  |  |
| CC(=O)NNc1nc(C)c(C(=O)NNC(=O)C(=O)Nc2c(C)cccc2C)s1 | > 100 | > 100 | > 100 | 77.6 | > 100 | 80.1 | > 100 | > 100 | > 100 |  |  |  |  |  |  |  |  |  |  |  |
| CN(C)c1ccc([O-])cc1.CN(C)c1ccc([O-])cc1.CN(C)c1ccc([O-])cc1.CN(C)c1ccc([O-])cc1.[Ti+4] | > 100 | > 100 | > 100 | > 100 | > 100 | > 100 | > 100 | > 100 | > 100 |  | > 100 | 56.3 | 85.3 | 27.5 | 37.9 | 38.1 | > 100 | > 100 | > 100 |  |
| Clc1ccc(Cc2nc3ccccc3s2)c(Cl)c1 | 27.8 | 34.9 | 31.5 | 35.3 | 36.2 | 41.2 | 38.7 | 43.3 | 30.3 |  |  |  |  |  |  |  |  |  |  |  |
| O=C(O)C1C2CCC(O2)C1C(=O)N1CCCCC1 (centres undefined) | 15 | 17 | 3.87 |  |  | 20.6 | 62.8 | 42.9 | 7.17 | 14.2 |  |  |  |  |  |  |  |  |  |  |
| CCN(CC)CCNc1ccc([N+](=O)[O-])c2sc3ccccc3c(=O)c12 | 2.35 | 4.44 | 3.58 | 3.27 | 3.39 | 1.87 | 15.2 | 6.3 | 11.4 |  | 0.958 | 0.646 | 1.35 | 0.783 | 0.582 | 0.386 | 3.47 | 2.08 | 1.07 |  |
| C1C[OH+]CC[OH+]CCNCC[OH+]CC[OH+]CCN1.[Cl-].[Pt+4] | > 100 | > 100 | > 100 |  | > 100 | > 100 | > 100 | > 100 | > 100 |  | > 100 | > 100 | > 100 |  | > 100 | > 100 | > 100 | > 100 | > 100 |  |
| CC1CC#CCOC(=O)CCCC1=O (centres undefined) | > 100 |  | > 100 | > 100 | > 100 | > 100 |  | > 100 | > 100 |  |  |  |  |  |  |  |  |  |  |  |
| NC1CCCCC1.[O]=[Ge].[O]=[Ge].[O]=[Ge][OH].[O]=[Ge][OH] | > 100 | > 100 |  | > 100 | > 100 | > 100 | > 100 |  | > 100 | > 100 | > 100 | > 100 |  |  |  |  |  |  |  | > 100 |
| NCCCOCC(=O)O | > 100 | > 100 | > 100 |  | > 100 | > 100 | > 100 | > 100 | > 100 | > 100 |  |  |  |  |  |  |  |  |  |  |
| CC(=O)N[C@@H]1C(O)CN2C(=O)C(=O)O[C@H](C(O)CO)[C@@H]12 (some centres undefined) | > 100 | > 100 | > 100 | > 100 | > 100 | > 100 | > 100 | > 100 |  |  |  |  |  |  |  |  |  |  |  |  |
| O=C(Nc1ccc(Cl)cc1Cl)C(=O)C(C(=O)c1ccc2ccccc2c1)C1OC(=O)c2ccccc21 (centres undefined) | 19.5 | > 100 | 57 | 23.9 |  |  | 19.6 | > 100 | 30.7 |  |  |  |  |  |  |  |  |  |  |  |
